Laboratory results as given in patent US20150216978A1, “MODULATORS OF DRUGS USING CARBOXYLESTERASE SELECTIVE INHIBITORS” (Rhode Island Board of Education, State of Rhode Island and …, priority 2013, published 2015).

Legend:
CES2 [1] = molecular target: T1, CES2 (Homo sapiens, UniProt O00748); experiment: Inhibition of carboxylesterases by Orlistat (human CES2); assay type: biochemical; conditions: Orlistat at 1 nM
T1 sequence (O00748 27-559): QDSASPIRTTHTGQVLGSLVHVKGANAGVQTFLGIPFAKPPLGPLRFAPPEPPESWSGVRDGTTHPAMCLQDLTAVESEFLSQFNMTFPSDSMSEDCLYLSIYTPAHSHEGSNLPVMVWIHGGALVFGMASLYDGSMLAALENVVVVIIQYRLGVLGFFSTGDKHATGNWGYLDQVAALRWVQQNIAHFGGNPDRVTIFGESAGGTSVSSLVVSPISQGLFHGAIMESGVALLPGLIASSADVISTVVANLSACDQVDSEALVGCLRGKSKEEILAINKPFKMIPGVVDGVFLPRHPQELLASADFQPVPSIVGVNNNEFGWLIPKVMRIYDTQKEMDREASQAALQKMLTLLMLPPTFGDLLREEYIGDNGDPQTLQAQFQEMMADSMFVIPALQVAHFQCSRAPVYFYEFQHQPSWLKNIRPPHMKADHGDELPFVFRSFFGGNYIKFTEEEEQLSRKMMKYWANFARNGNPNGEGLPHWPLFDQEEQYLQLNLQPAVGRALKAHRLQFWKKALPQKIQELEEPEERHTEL
Source text: (§1) For a decade, Orlistat has been the most used anti-obesity drug. However, the use of Orlistat has been associated with fatal liver and kidney toxicity. This type of toxicity is rare, pointing to a compound effect of multiple factors. Specifically, we assumed that orlistat alters the activity of detoxification enzymes, which may have fatal effects when these factors are perfectly aligned. To shed light on this possibility, we tested Orlistat for the inhibition of carboxylesterases, a class of hydrolytic enzymes with known detoxication significance. […] Orlistat at 1 nM inhibited CES2 by 75%, but no inhibition was detected with CES1. […] In a striking contrast, rat ces1d and ces1e, two major forms of liver CESs, were resistant to Orlistat (Biochem Pharmacol. 2013, 85:439-447).

CES1 = molecular target: T2, CES1 (Homo sapiens, UniProt P23141); experiment: Inhibition of carboxylesterases by Orlistat (human CES1); assay type: biochemical
T2 sequence (P23141 18-567): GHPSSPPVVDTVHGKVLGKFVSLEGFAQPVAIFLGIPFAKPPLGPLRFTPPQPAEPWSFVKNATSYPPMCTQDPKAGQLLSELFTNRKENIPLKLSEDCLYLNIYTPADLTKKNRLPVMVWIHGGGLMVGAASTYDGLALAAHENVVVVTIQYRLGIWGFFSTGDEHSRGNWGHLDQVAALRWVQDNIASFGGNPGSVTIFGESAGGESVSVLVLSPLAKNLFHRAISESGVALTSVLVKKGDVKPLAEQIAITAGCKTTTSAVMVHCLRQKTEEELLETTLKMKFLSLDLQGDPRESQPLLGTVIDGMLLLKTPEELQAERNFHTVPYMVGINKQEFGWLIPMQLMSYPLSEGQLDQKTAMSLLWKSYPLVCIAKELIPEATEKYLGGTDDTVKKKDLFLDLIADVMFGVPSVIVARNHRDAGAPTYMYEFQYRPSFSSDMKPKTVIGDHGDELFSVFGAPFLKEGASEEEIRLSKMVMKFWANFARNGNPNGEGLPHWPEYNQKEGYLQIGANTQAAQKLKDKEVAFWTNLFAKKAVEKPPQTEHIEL
Source text: as §1

cells = experiment: Cell viability of cells treated with PPD in the presence or absence of Orlistat; assay type: cell-based
Method: To shed light on the clinical consequences of inhibited CES2 by Orlistat, cells were treated with PPD in the presence or absence of Orlistat. PPD is a carbamate anticancer prodrug and activated preferentially by CES2 hydrolysis of the ester side chain of the carbamate (20, 21). […] This finding was confirmed in CES2 induced condition (Brit J Pharmacol. 2013, 168:1989-1999).

mouse ces2c = molecular target: T3, mouse ces2c (Mus musculus, UniProt Q91WG0); conditions: 1 nM Orlistat; cited from earlier work
T3 sequence (Q91WG0 27-561): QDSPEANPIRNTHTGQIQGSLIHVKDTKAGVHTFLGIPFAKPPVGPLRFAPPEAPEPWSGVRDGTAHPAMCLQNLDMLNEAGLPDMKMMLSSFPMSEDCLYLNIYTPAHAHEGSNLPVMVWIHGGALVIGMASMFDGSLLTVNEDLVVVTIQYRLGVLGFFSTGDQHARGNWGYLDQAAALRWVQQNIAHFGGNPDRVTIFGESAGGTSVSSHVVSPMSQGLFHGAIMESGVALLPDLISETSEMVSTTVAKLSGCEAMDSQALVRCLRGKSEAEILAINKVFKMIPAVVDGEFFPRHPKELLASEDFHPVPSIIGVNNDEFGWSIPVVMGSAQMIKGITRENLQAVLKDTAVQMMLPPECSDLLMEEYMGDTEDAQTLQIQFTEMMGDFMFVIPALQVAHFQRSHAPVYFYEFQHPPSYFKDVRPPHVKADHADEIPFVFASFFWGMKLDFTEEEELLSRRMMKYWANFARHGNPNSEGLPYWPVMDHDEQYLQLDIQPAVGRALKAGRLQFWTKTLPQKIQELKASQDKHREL

mouse ces2e = molecular target: T4, mouse ces2e (Mus musculus, UniProt Q8BK48); conditions: 1 nM Orlistat; cited from earlier work
T4 sequence (Q8BK48 27-559): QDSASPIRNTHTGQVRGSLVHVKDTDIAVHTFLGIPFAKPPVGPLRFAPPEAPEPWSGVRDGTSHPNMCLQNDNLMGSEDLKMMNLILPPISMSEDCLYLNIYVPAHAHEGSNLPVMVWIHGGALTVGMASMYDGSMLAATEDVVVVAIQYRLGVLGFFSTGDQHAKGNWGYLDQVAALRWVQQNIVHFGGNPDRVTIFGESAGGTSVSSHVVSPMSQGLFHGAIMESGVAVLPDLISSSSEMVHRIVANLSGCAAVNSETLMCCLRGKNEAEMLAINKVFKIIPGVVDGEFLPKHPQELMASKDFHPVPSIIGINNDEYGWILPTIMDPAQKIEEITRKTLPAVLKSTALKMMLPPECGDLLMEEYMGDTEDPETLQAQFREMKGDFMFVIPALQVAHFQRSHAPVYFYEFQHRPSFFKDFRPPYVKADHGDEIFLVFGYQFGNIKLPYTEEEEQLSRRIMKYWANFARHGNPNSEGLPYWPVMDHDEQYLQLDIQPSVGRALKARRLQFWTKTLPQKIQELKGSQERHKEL

ces1d = molecular target: T5, ces1d (Mus musculus, UniProt Q8VCT4); conditions: 1 nM Orlistat; cited from earlier work
T5 sequence (Q8VCT4 19-565): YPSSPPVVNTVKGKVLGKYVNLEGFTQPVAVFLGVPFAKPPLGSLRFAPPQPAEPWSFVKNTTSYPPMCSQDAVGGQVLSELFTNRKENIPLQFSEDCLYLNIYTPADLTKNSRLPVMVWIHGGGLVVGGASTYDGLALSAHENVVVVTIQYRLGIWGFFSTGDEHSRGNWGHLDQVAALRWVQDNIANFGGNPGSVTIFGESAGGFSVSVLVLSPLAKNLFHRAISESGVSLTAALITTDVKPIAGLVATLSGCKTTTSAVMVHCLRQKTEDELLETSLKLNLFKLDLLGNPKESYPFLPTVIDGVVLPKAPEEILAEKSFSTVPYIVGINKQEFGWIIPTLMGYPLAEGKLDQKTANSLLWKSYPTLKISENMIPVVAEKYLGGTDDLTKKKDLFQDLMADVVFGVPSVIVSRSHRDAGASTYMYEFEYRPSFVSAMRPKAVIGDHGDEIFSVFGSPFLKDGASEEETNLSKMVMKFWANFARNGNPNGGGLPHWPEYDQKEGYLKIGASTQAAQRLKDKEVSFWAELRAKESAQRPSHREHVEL

rat ces1d = molecular target: T6, rat ces1d (Rattus norvegicus, UniProt P16303); conditions: major form of rat liver CES; cited from earlier work
T6 sequence (P16303 19-565): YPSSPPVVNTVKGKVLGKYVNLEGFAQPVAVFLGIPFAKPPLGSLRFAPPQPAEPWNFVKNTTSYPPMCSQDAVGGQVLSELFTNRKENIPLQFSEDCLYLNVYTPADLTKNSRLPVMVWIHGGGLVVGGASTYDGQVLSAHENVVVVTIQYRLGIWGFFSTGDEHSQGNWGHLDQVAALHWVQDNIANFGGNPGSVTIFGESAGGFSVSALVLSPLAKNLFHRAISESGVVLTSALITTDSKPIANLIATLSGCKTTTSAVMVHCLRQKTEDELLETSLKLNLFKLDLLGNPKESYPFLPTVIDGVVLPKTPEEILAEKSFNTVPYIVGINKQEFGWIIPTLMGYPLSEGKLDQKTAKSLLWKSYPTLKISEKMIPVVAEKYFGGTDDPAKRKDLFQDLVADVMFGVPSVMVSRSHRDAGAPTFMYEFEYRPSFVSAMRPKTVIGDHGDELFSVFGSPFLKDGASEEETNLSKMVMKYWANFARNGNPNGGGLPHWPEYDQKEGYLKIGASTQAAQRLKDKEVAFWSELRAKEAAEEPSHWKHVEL

rat ces1e = molecular target: T7, rat ces1e (Rattus norvegicus, UniProt Q63108); conditions: major form of rat liver CES; cited from earlier work
T7 sequence (Q63108 19-561): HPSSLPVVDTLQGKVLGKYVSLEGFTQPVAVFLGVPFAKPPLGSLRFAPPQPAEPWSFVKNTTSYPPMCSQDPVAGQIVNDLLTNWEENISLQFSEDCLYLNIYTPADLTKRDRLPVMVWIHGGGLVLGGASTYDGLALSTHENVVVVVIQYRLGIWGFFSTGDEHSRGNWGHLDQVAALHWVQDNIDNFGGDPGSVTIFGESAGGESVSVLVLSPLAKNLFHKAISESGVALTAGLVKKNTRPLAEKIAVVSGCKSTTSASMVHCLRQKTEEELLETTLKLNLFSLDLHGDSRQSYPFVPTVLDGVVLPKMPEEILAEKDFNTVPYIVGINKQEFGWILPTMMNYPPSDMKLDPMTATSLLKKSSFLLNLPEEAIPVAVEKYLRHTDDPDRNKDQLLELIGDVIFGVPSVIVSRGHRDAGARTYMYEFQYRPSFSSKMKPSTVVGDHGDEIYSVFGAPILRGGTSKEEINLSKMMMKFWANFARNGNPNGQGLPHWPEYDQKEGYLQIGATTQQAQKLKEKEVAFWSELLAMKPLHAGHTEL

CES2 [2] = molecular target: T1, CES2; experiment: Cellular inhibition of CES2 in LS180 cells, lysates tested by native gel electrophoresis and Western blotting; assay type: cell-based; parameters: endogenous in cells; host or cells: LS180
Method: The cellular activity of Orlistat was examined on the inhibition of CES2 within cells. To test this possibility, LS180 cells (a colon adenocarcinoma line) were treated with orlistat for 1-24 h, washed extensively to remove free Orlistat and lysed by sonication. The lysates were then tested for the hydrolytic activity by native gel electrophoresis. […] We next tested whether the less inhibition by prolonged incubation was due to increased expression of CES2. Western blotting was performed with the same gel stained for activity. As predicated, prolonged incubation increased CES2 expression (FIG. 3B). These findings established that regeneration of CES2 requires new synthesis of CES2.

CES2 [3] = molecular target: T1, CES2; experiment: Irreversibility: human liver microsomes incubated with Orlistat, native gel electrophoresis, activity staining (CES2); assay type: biochemical; parameters: from tissue; host or cells: human liver microsomes
Method: It was tested whether the inhibition involves covalent interactions between Orlistat and CES2. Microsomes from human livers (CES1 and CES2) were incubated with Orlistat, resolved by native gel electrophoresis to remove free Orlistat, and stained for the remaining activity.

With CCCCCCCCCCC[C@@H](C[C@@H]1OC(=O)[C@H]1CCCCCC)OC(=O)[C@H](CC(C)C)NC=O [Orlistat] the “inhibition of CES2” value (CES2 [1]) was 75%, the inhibition at 0.1 µM (CES1; 100 nM orlistat) was roughly 30% and the “inhibition of CES1” value (CES1; Orlistat at 1 nM) was “no inhibition”. For the same compound, the “reduction of cell viability by PPD (carbamate) in the presence of Orlistat” value (cells; PPD plus Orlistat) was “significantly reversed”, the “reduction of the cell killing activity of PPD” value (cells; pretreatment with Orlistat) was no more than 60% and the cell viability (cells; treatment with substance alone) was “no changes”. The “inhibition of mouse ces2c” value (mouse ces2c) was 90%, the “inhibition of mouse ces2e” value (mouse ces2e) was 55% and the “inhibition of ces1d” value (ces1d) was 12%. For the same compound, the “sensitivity of rat ces1d to Orlistat” value (rat ces1d) was “resistant”, the “sensitivity of rat ces1e to Orlistat” value (rat ces1e) was “resistant” and the “inhibition of CES2 activity in cells” value (CES2 [2]; 1-h incubation) was roughly 80%. For the same compound, the “CES2 expression (Western blotting)” value (CES2 [2]; prolonged incubation 24 h) was “increased”, the “inhibition of CES2 activity in cells” value (CES2 [2]; prolonged incubation 24 h) was “less effective” and the “inhibition of CES2 activity in cells” value (CES2 [2]; treated for 6 h) was “Comparable inhibition”. For the same compound, the “remaining activity of CES2 upon incubation with Orlistat” value (CES2 [3]; human liver microsomes, free Orlistat removed by native gel electrophoresis) was “profoundly reduced” and the “type of inhibition of CES2” value (CES2 [3]; inhibition persists after removal of Orlistat by electrophoresis) was “irreversible inhibitor”.
